Patent US10829478B2, “5-[3-[piperazin-1-yl]-3-oxo-propyl]-imidazolidine-2,4-dione derivatives as ADAMTS 4 and 5 inhibitors for treating e.g. osteoarthritis” (Galapagos NV, priority 2016, dated 2020)
Read-outs that look alike come from different tables or passages of the source.

Legend:
rnADAMTS-5 (1-564-6H) = rnADAMTS-5 (1-564-6H) (Rattus norvegicus (Rat), UniProt Q6TY19); experiment: Rat ADAMTS-5 TBIS-1 cleavage assay; assay type: biochemical; settings: 120 min at 37° C.; read-out: Rat ADAMTS-5 potency IC50
human ADAMTS-5 = human ADAMTS-5 (Homo sapiens (Human), UniProt Q9UNA0); experiment: hADAMTS-5 TBIS-1 cleavage assay, Protocol 3; assay type: biochemical; settings: 90 min at 37° C., read-out: hADAMTS-5 potency IC50
Method: The reaction is initiated by adding to the assay plate TBIS-1 (10 μL, 4.5 μM, Anaspec) in the same buffer.
Finally, the fluorescence is read on the Envision (Perkin Elmer) after an incubation of 90 min at 37° C. (Excitation 485 nm, emission 530).

human ADAMTS6 = human ADAMTS6 (Homo sapiens (Human), UniProt Q9UKP5); experiment: hADAMTS-6 fluorescent based protease assay (520 MMP FRET substrate XII); assay type: biochemical; settings: 37° C. for 2 h; read-out: hADAMTS-6 potency IC50
Outline: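 ADAMTS6 (0.73 nM final) in 25 mM Tris pH 8.0, 0.05% CHAPS, 2.5 mM CaCl2 with compound dilution series (top 20 μM, 1/5 steps). Reaction started with 520 MMP FRET Substrate XII, incubated 2 h at 37 °C. Substrate cleavage read by fluorescence ex485/em530; IC50 determined.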

human ADAMTS4 = human ADAMTS4 (Homo sapiens (Human), UniProt O75173); experiment: hADAMTS-4 TBIS-1 cleavage assay, Protocol 2; assay type: biochemical
human MMP13 = human MMP13 (Homo sapiens (Human), UniProt P45452); experiment: hMMP13 assay, Protocol 2 (390 MMP FRET Substrate I, Enzo enzyme); assay type: biochemical; settings: Protocol 2, human MMP13 (Enzo Life Sciences), read-out: hMMP-13 potency IC50
Method: Human MMP13 is preactivated by incubated the enzyme in the same buffer complemented with 1 mM freshly prepared p-Aminophenylmercuric acetate (AMPA) for 1 h at 37° C.

human MMP14 = human MMP14 (Homo sapiens (Human), UniProt P50281); experiment: hMMP14 assay (390 MMP FRET Substrate I); assay type: biochemical; settings: human MMP14 (Biomol), read-out: hMMP-14 potency IC50
Method: The basis for the assay is the cleavage of the substrate 390 MMP FRET Substrate I (Anaspec Cat #AS-27076) by human MMP14 (Biomol, Cat #SE-259).
The reaction is initiated by adding to the assay plate 390 MMP FRET Substrate I (10 μL, 2.5 μM) in the same buffer.
Finally, the fluorescence is read on the Envision (Perkin Elmer) after an incubation of 60 min at room temperature (Excitation 485 nm, Emission 530).

human TACE = human TACE (Homo sapiens (Human), UniProt P78536); experiment: biochemical
Method: Finally, the fluorescence is read on the Envision (Perkin Elmer) after an incubation of 75 min at room temperature (Excitation 485 nm, Emission 530).

[1] = Protocol 2, 180 min at 37° C., read-out: ADAMTS4 potency IC50

Sequence of human ADAMTS6 (Q9UKP5 other isoform, or with tags, fused parts or gaps): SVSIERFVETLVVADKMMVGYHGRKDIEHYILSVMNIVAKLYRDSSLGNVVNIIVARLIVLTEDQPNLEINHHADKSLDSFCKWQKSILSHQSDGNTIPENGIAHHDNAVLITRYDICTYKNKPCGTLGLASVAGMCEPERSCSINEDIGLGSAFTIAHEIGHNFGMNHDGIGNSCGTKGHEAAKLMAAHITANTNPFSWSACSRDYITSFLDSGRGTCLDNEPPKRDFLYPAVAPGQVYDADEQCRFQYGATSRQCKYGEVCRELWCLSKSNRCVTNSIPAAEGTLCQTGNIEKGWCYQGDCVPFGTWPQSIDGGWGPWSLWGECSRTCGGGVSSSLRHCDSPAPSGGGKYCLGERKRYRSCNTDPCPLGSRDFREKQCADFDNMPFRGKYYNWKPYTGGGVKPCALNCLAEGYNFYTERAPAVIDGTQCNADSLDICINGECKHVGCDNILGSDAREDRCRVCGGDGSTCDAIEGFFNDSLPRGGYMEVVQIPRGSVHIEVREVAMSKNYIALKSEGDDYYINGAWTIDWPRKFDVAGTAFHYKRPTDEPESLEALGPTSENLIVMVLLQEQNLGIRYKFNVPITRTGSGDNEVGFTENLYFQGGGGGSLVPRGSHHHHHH
Sequence of human ADAMTS-5 (Q9UNA0 262-930): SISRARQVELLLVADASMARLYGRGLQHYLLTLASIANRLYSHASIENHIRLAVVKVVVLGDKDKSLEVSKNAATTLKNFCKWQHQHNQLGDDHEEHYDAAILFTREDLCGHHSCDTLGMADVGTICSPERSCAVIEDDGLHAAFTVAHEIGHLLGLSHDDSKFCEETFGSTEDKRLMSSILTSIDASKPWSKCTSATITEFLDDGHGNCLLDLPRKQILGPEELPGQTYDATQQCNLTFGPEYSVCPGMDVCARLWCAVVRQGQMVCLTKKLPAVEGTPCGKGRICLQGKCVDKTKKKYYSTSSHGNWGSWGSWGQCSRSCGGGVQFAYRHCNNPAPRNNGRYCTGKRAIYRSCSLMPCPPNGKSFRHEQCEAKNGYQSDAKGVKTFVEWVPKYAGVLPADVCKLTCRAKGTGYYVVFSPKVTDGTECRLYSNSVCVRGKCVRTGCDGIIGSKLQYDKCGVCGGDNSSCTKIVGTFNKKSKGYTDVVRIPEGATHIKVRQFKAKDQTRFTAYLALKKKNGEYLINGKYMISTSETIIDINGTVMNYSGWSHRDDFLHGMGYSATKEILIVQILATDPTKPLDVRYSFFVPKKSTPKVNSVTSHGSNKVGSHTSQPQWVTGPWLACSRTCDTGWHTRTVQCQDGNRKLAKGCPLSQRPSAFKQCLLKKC
Sequence of human TACE (P78536 215-671): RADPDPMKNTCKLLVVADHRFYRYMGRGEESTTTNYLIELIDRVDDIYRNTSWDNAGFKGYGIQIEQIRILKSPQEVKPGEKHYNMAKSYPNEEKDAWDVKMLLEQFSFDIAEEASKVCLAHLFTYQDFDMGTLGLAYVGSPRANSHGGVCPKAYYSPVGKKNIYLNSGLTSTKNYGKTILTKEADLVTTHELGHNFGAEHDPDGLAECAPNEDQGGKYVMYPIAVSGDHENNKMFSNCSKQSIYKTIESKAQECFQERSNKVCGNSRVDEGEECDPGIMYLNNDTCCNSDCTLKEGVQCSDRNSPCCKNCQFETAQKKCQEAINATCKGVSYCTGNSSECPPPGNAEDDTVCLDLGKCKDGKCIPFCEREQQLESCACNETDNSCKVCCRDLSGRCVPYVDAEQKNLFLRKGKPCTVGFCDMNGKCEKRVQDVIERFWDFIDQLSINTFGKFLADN
Sequence of human ADAMTS4 (O75173 213-837): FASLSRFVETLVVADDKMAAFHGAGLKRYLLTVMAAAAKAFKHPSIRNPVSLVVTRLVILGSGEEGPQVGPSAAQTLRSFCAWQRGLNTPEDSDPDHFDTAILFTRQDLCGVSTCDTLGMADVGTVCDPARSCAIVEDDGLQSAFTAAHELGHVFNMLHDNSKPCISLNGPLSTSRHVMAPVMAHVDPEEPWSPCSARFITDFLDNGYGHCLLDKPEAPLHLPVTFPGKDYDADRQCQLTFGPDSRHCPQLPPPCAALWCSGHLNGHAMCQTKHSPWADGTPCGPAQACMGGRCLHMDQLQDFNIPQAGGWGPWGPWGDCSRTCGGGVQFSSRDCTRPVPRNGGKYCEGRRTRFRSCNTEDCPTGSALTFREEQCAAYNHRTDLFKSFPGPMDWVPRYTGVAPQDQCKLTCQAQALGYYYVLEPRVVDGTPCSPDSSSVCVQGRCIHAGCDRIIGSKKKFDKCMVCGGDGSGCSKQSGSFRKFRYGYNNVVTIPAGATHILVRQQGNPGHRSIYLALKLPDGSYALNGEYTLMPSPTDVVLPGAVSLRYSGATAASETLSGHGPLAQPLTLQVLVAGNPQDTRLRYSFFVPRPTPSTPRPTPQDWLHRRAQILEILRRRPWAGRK
Sequence of rnADAMTS-5 (1-564-6H) (Q6TY19 entry or part of it): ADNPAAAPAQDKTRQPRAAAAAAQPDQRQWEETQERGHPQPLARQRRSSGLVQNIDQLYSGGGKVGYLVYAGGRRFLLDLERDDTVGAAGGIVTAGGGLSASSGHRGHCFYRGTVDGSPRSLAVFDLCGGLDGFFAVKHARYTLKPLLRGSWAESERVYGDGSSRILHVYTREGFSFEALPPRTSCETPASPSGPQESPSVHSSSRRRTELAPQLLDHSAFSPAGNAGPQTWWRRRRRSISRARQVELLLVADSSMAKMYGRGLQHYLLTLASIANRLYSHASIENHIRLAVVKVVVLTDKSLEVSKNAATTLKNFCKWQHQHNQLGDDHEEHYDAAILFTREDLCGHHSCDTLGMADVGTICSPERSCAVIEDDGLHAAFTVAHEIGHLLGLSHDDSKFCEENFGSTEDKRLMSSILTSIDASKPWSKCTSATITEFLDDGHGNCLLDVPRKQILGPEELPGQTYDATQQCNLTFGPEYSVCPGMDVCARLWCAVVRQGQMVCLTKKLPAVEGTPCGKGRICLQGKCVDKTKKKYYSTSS

Compound	IC50 (rnADAMTS-5 (1-564-6H))	IC50 (human ADAMTS-5)	IC50 (human ADAMTS6)	IC50 (human ADAMTS4; [1])	IC50 (human MMP13)	IC50 (human MMP14)	IC50 (human TACE)	IC50 (human ADAMTS4)
COc1cc(F)cc(N2CCN(C(=O)[C@H](C)C[C@@]3(C4CC4)NC(=O)NC3=O)CC2)c1 (stereo in doubt) [Cpd 130, 5-cyclopropyl-5-[3-[4-(3-fluoro-5-methoxy-phenyl)piperazin-1-yl]-2-methyl-3-oxo-propyl]imidazolidine-2,4-dione]	> 100 nM	> 100 nM	> 100 nM	–	–	–	–	–
COc1cc(F)cc(N2CCN(C(=O)[C@H](C)C[C@@]3(C)NC(=O)NC3=O)CC2)c1 (stereo in doubt) [Cpd 131, 5-[3-[4-(3-fluoro-5-methoxy-phenyl)piperazin-1-yl]-2-methyl-3-oxo-propyl]-5-methyl-imidazolidine-2,4-dione]	> 100 nM	> 100 nM	> 100 nM	–	–	–	–	–
COc1cc(N2CCN(C(=O)CC[C@@]3(C)NC(=O)NC3=O)C[C@@H]2C)cc(F)c1Cl [Cpd 119, (5R)-5-[3-[(3 S)-4-(4-chloro-3-fluoro-5-methoxy-phenyl)-3-methyl-piperazin-1-yl]-3-oxo-propyl]-5-methyl-imidazolidine-2,4-dione]	–	0.001 to 25 nM	0.001 to 25 nM	> 100 nM	> 100 nM	> 100 nM	> 100 nM	–
COc1cc(N2CCN(C(=O)[C@@H](C)C[C@@]3(C)NC(=O)NC3=O)CC2)cc(F)c1Cl [Cpd 122, (5R)-5-[(2S)-3-[4-(4-chloro-3-fluoro-5-methoxy-phenyl)piperazin-1-yl]-2-methyl-3-oxo-propyl]-5-methyl-imidazolidine-2,4-dione]	–	0.001 to 25 nM	0.001 to 25 nM	–	> 100 nM	> 100 nM	> 100 nM	50 to 100 nM
COC[C@]1(C[C@H](C)C(=O)N2CCN(c3cc(F)c(Cl)c(OC)c3)CC2)NC(=O)NC1=O [Cpd 123, (5 S)-5-[(2S)-3-[4-(4-chloro-3-fluoro-5-methoxy-phenyl)piperazin-1-yl]-2-methyl-3-oxo-propyl]-5-(methoxymethyl)imidazolidine-2,4-dione]	–	0.001 to 25 nM	0.001 to 25 nM	–	> 100 nM	> 100 nM	> 100 nM	50 to 100 nM
COc1cc(N2CCN(C(=O)CC[C@]3(C)NC(=O)NC3=O)C[C@@H]2C)ccc1Cl [Cpd 146, (5 S)-5-[3-[(3 S)-4-(4-chloro-3-methoxy-phenyl)-3-methyl-piperazin-1-yl]-3-oxo-propyl]-5-methyl-imidazolidine-2,4-dione]	–	> 100 nM	> 100 nM	> 100 nM	> 100 nM	> 100 nM	> 100 nM	–

Further lines, with some results ahead:

IC50 (rnADAMTS-5 (1-564-6H))	IC50 (human ADAMTS-5)	IC50 (human ADAMTS6)	IC50 (human ADAMTS4; [1])	IC50 (human MMP13)	IC50 (human MMP14)	IC50 (human TACE)	Compound	IC50 (human ADAMTS4)
–	> 100 nM	0.001 to 25 nM	> 100 nM	> 100 nM	> 100 nM	> 100 nM	COc1cc(N2CCN(C(=O)CC[C@H]3NC(=O)NC3=O)CC2)cc(Cl)c1F [Cpd 147, (5R)-5-[3-[4-(3-chloro-4-fluoro-5-methoxy-phenyl)piperazin-1-yl]-3-oxo-propyl]imidazolidine-2,4-dione]	–
–	25 to 50 nM	0.001 to 25 nM	> 100 nM	> 100 nM	> 100 nM	> 100 nM	COc1cc(N2CCN(C(=O)CC[C@H]3NC(=O)NC3=O)C[C@@H]2C)cc(Cl)c1F [Cpd 148, (5R)-5-[3-[(3 S)-4-(3-chloro-4-fluoro-5-methoxy-phenyl)-3-methyl-piperazin-1-yl]-3-oxo-propyl]imidazolidine-2,4-dione]	–
–	> 100 nM	0.001 to 25 nM	> 100 nM	> 100 nM	> 100 nM	> 100 nM	CCOc1cc(N2CCN(C(=O)CC[C@H]3NC(=O)NC3=O)C[C@@H]2C)cc(OC)c1Cl [Cpd 150, (5R)-5-[3-[(3 S)-4-(4-chloro-3-ethoxy-5-methoxy-phenyl)-3-methyl-piperazin-1-yl]-3-oxo-propyl]imidazolidine-2,4-dione]	–
